Laboratory results: BigSolDB 2.1

For O=C(O)c1ccc(Cl)cc1Cl, the solubility (mole fraction) (in acetone, 273.15 K) was 0.0323, the solubility (mole fraction) (in acetone, 278.15 K) was 0.0359 and the solubility (mole fraction) (in acetone, 283.15 K) was 0.0394. It also gave a solubility (mole fraction) (in acetone, 288.15 K) of 0.0439, a solubility (mole fraction) (in acetone, 293.15 K) of 0.0482 and a solubility (mole fraction) (in acetone, 298.15 K) of 0.0531. The solubility (mole fraction) (in acetone, 303.15 K) was 0.0585, the solubility (mole fraction) (in acetone, 308.15 K) was 0.0648 and the solubility (mole fraction) (in acetone, 313.15 K) was 0.0713. It also gave a solubility (mole fraction) (in acetone, 318.15 K) of 0.0784, a solubility (mole fraction) (in acetonitrile, 273.15 K) of 0.00318 and a solubility (mole fraction) (in acetonitrile, 278.15 K) of 0.00361. It also gave a solubility (mole fraction) (in acetonitrile, 283.15 K) of 0.00451, a solubility (mole fraction) (in acetonitrile, 288.15 K) of 0.00531 and a solubility (mole fraction) (in acetonitrile, 293.15 K) of 0.00597. The solubility (mole fraction) (in acetonitrile, 298.15 K) was 0.00702, the solubility (mole fraction) (in acetonitrile, 303.15 K) was 0.00786 and the solubility (mole fraction) (in acetonitrile, 308.15 K) was 0.00929. The solubility (mole fraction) (in acetonitrile, 313.15 K) was 0.0103, the solubility (mole fraction) (in acetonitrile, 318.15 K) was 0.0115 and the solubility (mole fraction) (in ethanol, 273.15 K) was 0.0364. For the same compound, the solubility (mole fraction) (in ethanol, 278.15 K) was 0.04, the solubility (mole fraction) (in ethanol, 283.15 K) was 0.0442 and the solubility (mole fraction) (in ethanol, 288.15 K) was 0.0485. The solubility (mole fraction) (in ethanol, 293.15 K) was 0.0537, the solubility (mole fraction) (in ethanol, 298.15 K) was 0.0591 and the solubility (mole fraction) (in ethanol, 303.15 K) was 0.065. The solubility (mole fraction) (in ethanol, 308.15 K) was 0.0719, the solubility (mole fraction) (in ethanol, 313.15 K) was 0.0788 and the solubility (mole fraction) (in ethanol, 318.15 K) was 0.0849. The solubility (mole fraction) (in ethyl acetate, 273.15 K) was 0.0232, the solubility (mole fraction) (in ethyl acetate, 278.15 K) was 0.0263 and the solubility (mole fraction) (in ethyl acetate, 283.15 K) was 0.0308. The solubility (mole fraction) (in ethyl acetate, 288.15 K) was 0.0347, the solubility (mole fraction) (in ethyl acetate, 293.15 K) was 0.0395 and the solubility (mole fraction) (in ethyl acetate, 298.15 K) was 0.0441. The solubility (mole fraction) (in ethyl acetate, 303.15 K) was 0.0484, the solubility (mole fraction) (in ethyl acetate, 308.15 K) was 0.0537 and the solubility (mole fraction) (in ethyl acetate, 313.15 K) was 0.0595. It also gave a solubility (mole fraction) (in ethyl acetate, 318.15 K) of 0.0654, a solubility (mole fraction) (in isobutanol, 273.15 K) of 0.0242 and a solubility (mole fraction) (in isobutanol, 278.15 K) of 0.0281. For the same compound, the solubility (mole fraction) (in isobutanol, 283.15 K) was 0.0326, the solubility (mole fraction) (in isobutanol, 288.15 K) was 0.0375 and the solubility (mole fraction) (in isobutanol, 293.15 K) was 0.043. The solubility (mole fraction) (in isobutanol, 298.15 K) was 0.0483, the solubility (mole fraction) (in isobutanol, 303.15 K) was 0.0535 and the solubility (mole fraction) (in isobutanol, 308.15 K) was 0.0597. For the same compound, the solubility (mole fraction) (in isobutanol, 313.15 K) was 0.066, the solubility (mole fraction) (in isobutanol, 318.15 K) was 0.0719 and the solubility (mole fraction) (in isopropanol, 273.15 K) was 0.0367. It also gave a solubility (mole fraction) (in isopropanol, 278.15 K) of 0.0412, a solubility (mole fraction) (in isopropanol, 283.15 K) of 0.0459 and a solubility (mole fraction) (in isopropanol, 288.15 K) of 0.0501. For the same compound, the solubility (mole fraction) (in isopropanol, 293.15 K) was 0.0565, the solubility (mole fraction) (in isopropanol, 298.15 K) was 0.0627 and the solubility (mole fraction) (in isopropanol, 303.15 K) was 0.0699. The solubility (mole fraction) (in isopropanol, 308.15 K) was 0.0769, the solubility (mole fraction) (in isopropanol, 313.15 K) was 0.0849 and the solubility (mole fraction) (in isopropanol, 318.15 K) was 0.0944. The solubility (mole fraction) (in methanol, 273.15 K) was 0.0261, the solubility (mole fraction) (in methanol, 278.15 K) was 0.0294 and the solubility (mole fraction) (in methanol, 283.15 K) was 0.0331. For the same compound, the solubility (mole fraction) (in methanol, 288.15 K) was 0.0369, the solubility (mole fraction) (in methanol, 293.15 K) was 0.0411 and the solubility (mole fraction) (in methanol, 298.15 K) was 0.0458. It also gave a solubility (mole fraction) (in methanol, 303.15 K) of 0.0505, a solubility (mole fraction) (in methanol, 308.15 K) of 0.0556 and a solubility (mole fraction) (in methanol, 313.15 K) of 0.0616. For the same compound, the solubility (mole fraction) (in methanol, 318.15 K) was 0.0673, the solubility (mole fraction) (in n-butanol, 273.15 K) was 0.0374 and the solubility (mole fraction) (in n-butanol, 278.15 K) was 0.0418. It also gave a solubility (mole fraction) (in n-butanol, 283.15 K) of 0.0468, a solubility (mole fraction) (in n-butanol, 288.15 K) of 0.0511 and a solubility (mole fraction) (in n-butanol, 293.15 K) of 0.0563. The solubility (mole fraction) (in n-butanol, 298.15 K) was 0.0616, the solubility (mole fraction) (in n-butanol, 303.15 K) was 0.0676 and the solubility (mole fraction) (in n-butanol, 308.15 K) was 0.0746. For the same compound, the solubility (mole fraction) (in n-butanol, 313.15 K) was 0.0814, the solubility (mole fraction) (in n-butanol, 318.15 K) was 0.0891 and the solubility (mole fraction) (in n-propanol, 273.15 K) was 0.0348. It also gave a solubility (mole fraction) (in n-propanol, 278.15 K) of 0.0385, a solubility (mole fraction) (in n-propanol, 283.15 K) of 0.0422 and a solubility (mole fraction) (in n-propanol, 288.15 K) of 0.0465. The solubility (mole fraction) (in n-propanol, 293.15 K) was 0.052, the solubility (mole fraction) (in n-propanol, 298.15 K) was 0.0575 and the solubility (mole fraction) (in n-propanol, 303.15 K) was 0.0631. It also gave a solubility (mole fraction) (in n-propanol, 308.15 K) of 0.0695, a solubility (mole fraction) (in n-propanol, 313.15 K) of 0.0763 and a solubility (mole fraction) (in n-propanol, 318.15 K) of 0.0823. It also gave a solubility (mole fraction) (in toluene, 273.15 K) of 0.00132, a solubility (mole fraction) (in toluene, 278.15 K) of 0.00174 and a solubility (mole fraction) (in toluene, 283.15 K) of 0.0022. The solubility (mole fraction) (in toluene, 288.15 K) was 0.00284, the solubility (mole fraction) (in toluene, 293.15 K) was 0.0036 and the solubility (mole fraction) (in toluene, 298.15 K) was 0.00433. For the same compound, the solubility (mole fraction) (in toluene, 303.15 K) was 0.00552, the solubility (mole fraction) (in toluene, 308.15 K) was 0.00671 and the solubility (mole fraction) (in toluene, 313.15 K) was 0.00837. For the same compound, the solubility (mole fraction) (in toluene, 318.15 K) was 0.00993.
